Consider 1 compound from patent US20120065614A1 (UNIVERSITY OF NORTH TEXAS, priority 2010, published 2012).

Series [1] is described as follows: Time-resolved phosphorescence lifetime. It is filed as physicochemical. How it is done:
(§1) Photoluminescence characterization: All photoluminescence studies were carried with the PTI spectrofluorometer described below. For titrations, 2.5-mL aliquots were placed in the quartz cuvette and 0.1 mL of gel was added at every titration point with magnetic stirring. Titration data were plotted as I/Io vs. volume of gel added (where I=intensity of sample after addition of gel and 1o=intensity of pure aqueous gold phosphor solution). Lifetime data were analyzed using a xenon flash lamp or N2 laser systems for both the sample and a scatterer solution used to generate the instrument response function (IRF) used for deconvolution.

The conditions of series [2]: solution, literature results, fitting error not given; cited from earlier work.
For series [3] the following is noted: cited from earlier work; for emission band maximum: literature.
The conditions of series [4]: cited from earlier work.
Series [5] in a line: Steady-state photoluminescence spectra (emission/excitation maxima). The format is physicochemical. How it is done:
as §1
Spectroscopic equipment: Steady-state luminescence spectra were acquired with a PTI QuantaMaster Model QM-4 scanning spectrofluorometer equipped with a 75-watt xenon lamp. The UVN is absorption spectra were measured at 1-nm resolution on either a diode array spectrometer (Hewlett-Packard, model 8543) or a Perkin-Elmer Lambda-900 double-beam UVN is/NIR absorption spectrophotometer.

Molecules are shown by their SMILES. Where two headings read alike, the source gives them in different places.

Consider `O=S(=O)([O-])c1cccc([PH](c2cccc(S(=O)(=O)[O-])c2)(c2cccc(S(=O)(=O)[O-])c2)[Au]([PH](c2cccc(S(=O)(=O)[O-])c2)(c2cccc(S(=O)(=O)[O-])c2)c2cccc(S(=O)(=O)[O-])c2)[PH](c2cccc(S(=O)(=O)[O-])c2)(c2cccc(S(=O)(=O)[O-])c2)c2cccc(S(=O)(=O)[O-])c2)c1` [Na8[Au(TPPTS)3], tris[tris(3,3′,3″-trisulfonatophenyl)phosphine]aurate(I)], for which the phosphorescence lifetime was found to be 2.6 μs in series [1] (after addition of PNIPAM hydrogels to the aqueous solution) and 1.4 μs in series [1] (aqueous solution before addition of PNIPAM hydrogels). Moreover, the “τ, soln. (RT)” value in series [1] (aqueous solution, RT) was 2.04 ± 0.02 μs (FIGS; in series [2], 1.9 μs (fitting error not given). Moreover, the emission band maximum in series [3] (solid state at 77° K) is reported as 486 nm; in series [3] (solid state at room temperature), 494 nm. Also, the “PL, soln. (RT), emission” value in series [3] (solution, RT, literature results (broad)) is 513 nm. Besides, the “PL, soln. (RT), excitation” value in series [3] (solution, RT, literature results) is listed as 293 nm. Also, the water solubility result in series [4] is listed as “highly water soluble”. Further, the excitation maximum in series [5] (aqueous solution of 0.001M) is 292 nm; in series [5] (solid state) it was 356 nm. In series [5] (solid state), this compound returned an emission maximum of 500 nm. For the same compound, the “PL, soln. (RT), emission, corrected” value in series [5] (solution, RT, Corr.) is listed as “nm exc.; 525 nm em”. Besides, the “PL, soln. (RT), excitation, corrected” value in series [5] (solution, RT, Corr.) is given as 285 nm. Moreover, the “PL, soln. (RT), emission, uncorrected” value in series [5] (solution, RT, Uncorr.) was 510 nm. Further, the “PL, soln. (RT), excitation, uncorrected” value in series [5] (solution, RT, Uncorr.) is reported as “Uncorr.: 296 nm exc.;”.
